Laboratory results published in ChEMBL document CHEMBL3991601, “The target landscape of clinical kinase drugs” (Science, 2017).
Activity calls are given as the source filed them. For most assays here, no stated cut-off is given here; in the data, actives have a measured Kd and inactives only a lower limit.

Columns and labels:
[1] = target: Tyrosine-protein kinase JAK1 (Homo sapiens, UniProt P23458)
[2] = target: Proto-oncogene tyrosine-protein kinase Src (Homo sapiens, UniProt P12931)
[3] = target: T1, Serine/threonine-protein kinase ULK3 (Homo sapiens, UniProt Q6PHR2)
T1 sequence (Q6PHR2 whole entry): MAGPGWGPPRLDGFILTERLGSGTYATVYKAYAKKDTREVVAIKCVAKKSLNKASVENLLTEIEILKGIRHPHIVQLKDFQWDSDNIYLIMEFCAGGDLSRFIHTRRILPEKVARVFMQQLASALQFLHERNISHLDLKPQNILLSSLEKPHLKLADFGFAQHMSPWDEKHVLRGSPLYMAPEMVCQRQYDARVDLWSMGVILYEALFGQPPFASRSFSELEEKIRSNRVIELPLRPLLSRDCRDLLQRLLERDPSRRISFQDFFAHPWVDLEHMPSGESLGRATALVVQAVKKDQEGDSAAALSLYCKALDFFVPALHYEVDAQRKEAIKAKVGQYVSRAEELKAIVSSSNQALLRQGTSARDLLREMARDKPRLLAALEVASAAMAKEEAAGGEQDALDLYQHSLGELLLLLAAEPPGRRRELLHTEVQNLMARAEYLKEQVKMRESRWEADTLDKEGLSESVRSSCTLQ

[4] = target: T2, Activin receptor type-1 (Homo sapiens, UniProt Q04771)
T2 sequence (Q04771 whole entry): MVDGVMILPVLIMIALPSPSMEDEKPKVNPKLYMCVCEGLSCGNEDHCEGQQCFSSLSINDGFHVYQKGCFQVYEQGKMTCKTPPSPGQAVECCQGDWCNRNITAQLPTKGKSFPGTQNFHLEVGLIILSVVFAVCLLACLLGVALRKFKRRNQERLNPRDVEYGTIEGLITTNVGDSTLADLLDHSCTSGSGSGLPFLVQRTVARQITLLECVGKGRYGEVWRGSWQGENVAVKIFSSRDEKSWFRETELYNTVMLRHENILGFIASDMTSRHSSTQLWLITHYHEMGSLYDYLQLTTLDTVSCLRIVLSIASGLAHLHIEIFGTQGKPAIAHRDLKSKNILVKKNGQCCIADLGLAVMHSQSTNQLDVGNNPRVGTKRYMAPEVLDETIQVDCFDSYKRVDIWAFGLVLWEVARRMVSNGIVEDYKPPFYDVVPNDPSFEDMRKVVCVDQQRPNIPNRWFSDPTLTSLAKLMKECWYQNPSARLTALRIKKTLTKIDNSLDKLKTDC

[5] = target: LIM domain kinase 2 (Homo sapiens, UniProt P53671)
Chain of LIM domain kinase 2 (P53671 whole entry, the tested form may be a part): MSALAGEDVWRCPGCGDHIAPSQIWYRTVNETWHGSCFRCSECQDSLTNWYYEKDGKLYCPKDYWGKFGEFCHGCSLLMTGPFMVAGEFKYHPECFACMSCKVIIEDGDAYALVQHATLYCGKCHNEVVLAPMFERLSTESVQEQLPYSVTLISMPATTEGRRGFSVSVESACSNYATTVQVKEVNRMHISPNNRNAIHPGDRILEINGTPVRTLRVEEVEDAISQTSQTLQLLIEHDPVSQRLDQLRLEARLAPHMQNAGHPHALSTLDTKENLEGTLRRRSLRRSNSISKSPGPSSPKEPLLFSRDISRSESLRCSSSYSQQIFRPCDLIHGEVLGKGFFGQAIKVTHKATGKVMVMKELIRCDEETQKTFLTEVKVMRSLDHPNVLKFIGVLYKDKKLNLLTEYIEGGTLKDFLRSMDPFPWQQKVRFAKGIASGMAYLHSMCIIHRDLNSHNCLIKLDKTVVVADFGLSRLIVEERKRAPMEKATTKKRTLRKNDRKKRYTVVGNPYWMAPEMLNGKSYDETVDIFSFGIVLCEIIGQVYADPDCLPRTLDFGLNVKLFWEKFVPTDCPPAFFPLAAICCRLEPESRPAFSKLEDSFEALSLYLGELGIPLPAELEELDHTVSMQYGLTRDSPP

[6] = target: T3, Discoidin domain-containing receptor 2 (Homo sapiens, UniProt Q16832)
T3 sequence (Q16832 whole entry): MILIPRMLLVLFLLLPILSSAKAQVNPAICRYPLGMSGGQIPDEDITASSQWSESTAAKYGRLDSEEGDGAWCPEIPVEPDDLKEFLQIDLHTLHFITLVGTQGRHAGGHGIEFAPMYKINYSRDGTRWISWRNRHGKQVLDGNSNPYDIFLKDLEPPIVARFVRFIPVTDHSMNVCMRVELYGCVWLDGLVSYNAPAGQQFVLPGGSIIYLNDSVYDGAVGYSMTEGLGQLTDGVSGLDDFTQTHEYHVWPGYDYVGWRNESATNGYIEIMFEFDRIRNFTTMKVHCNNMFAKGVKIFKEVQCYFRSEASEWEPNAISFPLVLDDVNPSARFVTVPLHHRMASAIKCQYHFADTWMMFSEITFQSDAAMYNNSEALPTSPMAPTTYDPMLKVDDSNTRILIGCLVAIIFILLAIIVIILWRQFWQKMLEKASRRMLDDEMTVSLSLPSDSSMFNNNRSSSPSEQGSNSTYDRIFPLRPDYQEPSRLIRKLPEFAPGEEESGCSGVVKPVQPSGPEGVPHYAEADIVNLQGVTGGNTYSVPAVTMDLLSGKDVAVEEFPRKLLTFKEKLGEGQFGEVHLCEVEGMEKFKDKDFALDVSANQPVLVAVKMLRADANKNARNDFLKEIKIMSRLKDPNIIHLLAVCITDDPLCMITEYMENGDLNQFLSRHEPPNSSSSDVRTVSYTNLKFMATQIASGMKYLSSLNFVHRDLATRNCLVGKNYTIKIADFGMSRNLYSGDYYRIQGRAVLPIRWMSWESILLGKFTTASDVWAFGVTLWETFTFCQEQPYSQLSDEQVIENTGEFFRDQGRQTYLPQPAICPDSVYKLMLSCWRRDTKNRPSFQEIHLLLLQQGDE

[7] = target: T4, Uncharacterized protein FLJ45252 (Homo sapiens, UniProt Q6ZSR9); details: read-out: Kd apparent; k-562, colo 205, sk-n-be(2) and mv-4-11
T4 sequence (Q6ZSR9 whole entry): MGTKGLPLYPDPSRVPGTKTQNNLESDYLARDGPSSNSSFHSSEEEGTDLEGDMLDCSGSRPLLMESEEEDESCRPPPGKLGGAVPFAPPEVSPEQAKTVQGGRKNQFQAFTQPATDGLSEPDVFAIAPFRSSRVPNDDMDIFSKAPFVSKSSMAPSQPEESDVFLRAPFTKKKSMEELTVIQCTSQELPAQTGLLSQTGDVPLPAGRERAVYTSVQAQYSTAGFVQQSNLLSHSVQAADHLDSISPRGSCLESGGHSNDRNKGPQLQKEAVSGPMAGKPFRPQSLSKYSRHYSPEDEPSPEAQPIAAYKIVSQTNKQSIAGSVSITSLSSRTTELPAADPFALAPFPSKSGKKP

[8] = target: Epithelial discoidin domain-containing receptor 1 (Homo sapiens, UniProt Q08345)
Chain of Epithelial discoidin domain-containing receptor 1 (Q08345 whole entry, the tested form may be a part): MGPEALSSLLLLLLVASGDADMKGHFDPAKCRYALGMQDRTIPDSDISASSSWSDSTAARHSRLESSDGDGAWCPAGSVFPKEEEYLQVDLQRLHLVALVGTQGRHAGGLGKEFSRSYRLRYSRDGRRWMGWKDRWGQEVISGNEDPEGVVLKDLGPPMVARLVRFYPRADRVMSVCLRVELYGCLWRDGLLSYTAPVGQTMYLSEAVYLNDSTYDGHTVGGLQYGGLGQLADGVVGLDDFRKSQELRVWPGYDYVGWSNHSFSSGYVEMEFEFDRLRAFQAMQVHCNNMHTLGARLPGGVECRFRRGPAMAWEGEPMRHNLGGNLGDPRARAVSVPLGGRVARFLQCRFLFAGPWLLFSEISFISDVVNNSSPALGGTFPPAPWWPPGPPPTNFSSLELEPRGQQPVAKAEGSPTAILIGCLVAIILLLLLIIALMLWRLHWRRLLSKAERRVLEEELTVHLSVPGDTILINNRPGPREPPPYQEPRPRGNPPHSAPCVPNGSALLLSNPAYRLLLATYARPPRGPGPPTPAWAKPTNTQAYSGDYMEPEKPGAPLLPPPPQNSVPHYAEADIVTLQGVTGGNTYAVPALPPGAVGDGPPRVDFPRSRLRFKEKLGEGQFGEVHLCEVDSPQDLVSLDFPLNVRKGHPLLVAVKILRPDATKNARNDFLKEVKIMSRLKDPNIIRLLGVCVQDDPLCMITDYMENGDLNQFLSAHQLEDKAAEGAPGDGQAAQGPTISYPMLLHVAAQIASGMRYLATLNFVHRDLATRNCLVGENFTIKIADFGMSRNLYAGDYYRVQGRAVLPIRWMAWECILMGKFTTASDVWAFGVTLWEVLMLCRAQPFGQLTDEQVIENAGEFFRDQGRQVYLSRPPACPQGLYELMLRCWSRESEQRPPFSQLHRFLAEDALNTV

[9] = target: T5, Membrane-associated tyrosine- and threonine-specific cdc2-inhibitory kinase (Homo sapiens, UniProt Q99640)
T5 sequence (Q99640 whole entry): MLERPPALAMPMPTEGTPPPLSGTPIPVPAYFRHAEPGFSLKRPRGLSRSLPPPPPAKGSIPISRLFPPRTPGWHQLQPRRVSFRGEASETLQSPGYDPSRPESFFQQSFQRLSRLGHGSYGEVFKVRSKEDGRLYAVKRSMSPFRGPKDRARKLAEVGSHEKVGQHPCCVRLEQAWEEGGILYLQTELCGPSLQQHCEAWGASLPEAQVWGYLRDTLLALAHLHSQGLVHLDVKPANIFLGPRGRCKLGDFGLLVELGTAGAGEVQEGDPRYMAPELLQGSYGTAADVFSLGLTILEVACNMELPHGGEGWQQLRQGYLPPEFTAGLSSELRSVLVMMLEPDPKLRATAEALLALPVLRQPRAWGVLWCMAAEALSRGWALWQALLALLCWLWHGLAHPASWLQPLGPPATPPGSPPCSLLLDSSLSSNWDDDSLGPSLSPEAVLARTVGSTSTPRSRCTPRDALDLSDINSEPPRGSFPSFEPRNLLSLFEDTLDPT

Chain of Tyrosine-protein kinase JAK1 (P23458 whole entry): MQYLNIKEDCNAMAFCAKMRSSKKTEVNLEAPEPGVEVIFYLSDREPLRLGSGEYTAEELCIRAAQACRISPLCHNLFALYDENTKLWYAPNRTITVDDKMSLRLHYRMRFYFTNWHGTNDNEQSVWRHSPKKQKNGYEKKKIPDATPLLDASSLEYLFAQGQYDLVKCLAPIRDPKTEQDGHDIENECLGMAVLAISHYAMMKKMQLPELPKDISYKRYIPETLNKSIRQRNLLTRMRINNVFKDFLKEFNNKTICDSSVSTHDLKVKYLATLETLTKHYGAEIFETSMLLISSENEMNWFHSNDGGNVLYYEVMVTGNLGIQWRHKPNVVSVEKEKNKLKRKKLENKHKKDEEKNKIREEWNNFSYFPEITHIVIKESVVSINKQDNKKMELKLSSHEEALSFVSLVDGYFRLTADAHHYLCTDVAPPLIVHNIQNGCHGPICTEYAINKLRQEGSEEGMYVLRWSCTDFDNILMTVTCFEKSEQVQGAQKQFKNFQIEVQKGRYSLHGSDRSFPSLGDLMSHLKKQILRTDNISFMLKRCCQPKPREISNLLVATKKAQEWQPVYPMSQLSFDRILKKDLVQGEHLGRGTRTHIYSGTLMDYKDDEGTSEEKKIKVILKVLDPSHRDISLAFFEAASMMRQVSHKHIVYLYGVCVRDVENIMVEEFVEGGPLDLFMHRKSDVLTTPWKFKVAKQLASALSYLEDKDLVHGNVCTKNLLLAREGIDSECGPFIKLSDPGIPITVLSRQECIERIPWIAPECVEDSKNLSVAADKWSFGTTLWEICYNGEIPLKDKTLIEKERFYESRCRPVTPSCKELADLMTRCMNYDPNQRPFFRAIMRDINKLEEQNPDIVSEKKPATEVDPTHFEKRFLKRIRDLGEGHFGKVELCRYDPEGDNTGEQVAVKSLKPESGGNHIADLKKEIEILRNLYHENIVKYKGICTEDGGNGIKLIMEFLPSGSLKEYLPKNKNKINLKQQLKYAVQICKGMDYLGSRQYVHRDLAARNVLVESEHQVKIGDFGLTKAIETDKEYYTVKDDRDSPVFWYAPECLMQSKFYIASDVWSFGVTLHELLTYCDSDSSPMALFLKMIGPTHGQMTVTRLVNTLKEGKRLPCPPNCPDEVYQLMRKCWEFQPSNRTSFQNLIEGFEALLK
Chain of Proto-oncogene tyrosine-protein kinase Src (P12931 2-536 limits assumed): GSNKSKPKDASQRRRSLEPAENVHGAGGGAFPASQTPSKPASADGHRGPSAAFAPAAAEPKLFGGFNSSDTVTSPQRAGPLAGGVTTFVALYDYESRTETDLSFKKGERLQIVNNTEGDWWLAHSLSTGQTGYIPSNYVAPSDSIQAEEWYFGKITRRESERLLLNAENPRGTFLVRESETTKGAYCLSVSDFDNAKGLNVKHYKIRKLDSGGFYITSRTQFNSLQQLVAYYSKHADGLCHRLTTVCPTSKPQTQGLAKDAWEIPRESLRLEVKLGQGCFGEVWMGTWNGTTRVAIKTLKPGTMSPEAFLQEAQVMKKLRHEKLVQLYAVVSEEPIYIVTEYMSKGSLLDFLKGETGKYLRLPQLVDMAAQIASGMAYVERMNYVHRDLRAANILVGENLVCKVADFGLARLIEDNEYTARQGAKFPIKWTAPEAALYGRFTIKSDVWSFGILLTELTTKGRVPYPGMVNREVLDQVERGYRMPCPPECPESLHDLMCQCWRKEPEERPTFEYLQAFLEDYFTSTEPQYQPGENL

Row | Structure (SMILES) | Kd [1] | Kd [2] | Kd [3] | Kd [4] | Kd [5] | Kd [6] | Kd [7] | Kd [8] | Kd [9]
1 | CCS(=O)(=O)N1CC(CC#N)(n2cc(-c3ncnc4[nH]ccc34)cn2)C1 [BARICITINIB] |  | > 30 µM (inactive) | > 30 µM (inactive) | > 30 µM (inactive) | > 30 µM (inactive) | > 30 µM (inactive) | 0.078 µM (active) | > 30 µM (inactive) | > 30 µM (inactive)
2 | CNC(=O)c1cc(Oc2ccc(NC(=O)Nc3ccc(Cl)c(C(F)(F)F)c3)c(F)c2)ccn1 [REGORAFENIB] | > 30 µM (inactive) | > 30 µM (inactive) | > 30 µM (inactive) | > 30 µM (inactive) | > 30 µM (inactive) | 0.421 µM (active) |  | 0.358 µM (active) | > 30 µM (inactive)
3 | COc1cc2nccc(Oc3ccc(NC(=O)NC4CC4)c(Cl)c3)c2cc1C(N)=O [LENVATINIB] | > 30 µM (inactive) |  | > 30 µM (inactive) | > 30 µM (inactive) | > 30 µM (inactive) | 0.218 µM (active) | > 30 µM (inactive) | 0.046 µM (active) | > 30 µM (inactive)
4 | O=C(Nc1cccc(Cl)c1)Nc1ncc(CCNc2ncnc3ccsc23)s1 [SNS-314] | > 30 µM (inactive) |  | > 30 µM (inactive) | > 30 µM (inactive) | > 30 µM (inactive) | 0.423 µM (active) | > 30 µM (inactive) | 0.14 µM (active) | > 30 µM (inactive)
5 | CC[C@H](Nc1ncnc2[nH]cnc12)c1nc2cccc(F)c2c(=O)n1-c1ccccc1 [IDELALISIB] | > 30 µM (inactive) | > 30 µM (inactive) | > 30 µM (inactive) | > 30 µM (inactive) | > 30 µM (inactive) | > 30 µM (inactive) |  | > 30 µM (inactive) | > 30 µM (inactive)
6 | COCCNCc1ccc(-c2cc3nccc(Oc4ccc(NC(=S)NC(=O)Cc5ccc(F)cc5)cc4F)c3s2)nc1 [GLESATINIB] | > 30 µM (inactive) |  | > 30 µM (inactive) | > 30 µM (inactive) | > 30 µM (inactive) | 1.49 µM (active) | > 30 µM (inactive) |  | > 30 µM (inactive)
7 | CCc1cnn2c(NCc3ccc[n+]([O-])c3)cc(N3CCCC[C@H]3CCO)nc12 [DINACICLIB] | > 30 µM (inactive) | > 30 µM (inactive) | > 30 µM (inactive) | > 30 µM (inactive) | > 30 µM (inactive) | > 30 µM (inactive) |  | > 30 µM (inactive) | > 30 µM (inactive)
8 | CN1CCC(COc2cnc(-c3cccc(Cn4nc(-c5cccc(C#N)c5)ccc4=O)c3)nc2)CC1 [TEPOTINIB] |  | > 30 µM (inactive) | > 30 µM (inactive) | > 30 µM (inactive) | > 30 µM (inactive) | > 30 µM (inactive) | > 30 µM (inactive) | > 30 µM (inactive) | > 30 µM (inactive)
9 | CC[C@@H]1C(=O)N(C)c2cnc(Nc3ccc(C(=O)N[C@H]4CC[C@H](N5CCN(CC6CC6)CC5)CC4)cc3OC)nc2N1C(C)C [VOLASERTIB] | > 30 µM (inactive) | > 30 µM (inactive) | > 30 µM (inactive) | > 30 µM (inactive) | > 30 µM (inactive) | > 30 µM (inactive) |  | > 30 µM (inactive) | > 30 µM (inactive)
10 | COc1cc2nccc(Oc3ccc(NC(=O)Nc4cc(C)on4)c(Cl)c3)c2cc1OC [TIVOZANIB] | > 30 µM (inactive) |  | > 30 µM (inactive) | > 30 µM (inactive) | > 30 µM (inactive) | 0.592 µM (active) | > 30 µM (inactive) | 0.19 µM (active) | > 30 µM (inactive)

More lines, now with the values ahead:

Row | Kd [1] | Kd [2] | Kd [3] | Kd [4] | Kd [5] | Kd [6] | Kd [7] | Kd [8] | Kd [9] | Structure (SMILES)
11 | > 30 µM (inactive) | > 30 µM (inactive) | > 30 µM (inactive) | > 30 µM (inactive) | > 30 µM (inactive) | > 30 µM (inactive) | > 30 µM (inactive) | > 30 µM (inactive) | > 30 µM (inactive) | C[C@@H](Nc1cc(F)cc(F)c1)c1cc(C(=O)N(C)C)cc2c(=O)cc(N3CCOCC3)oc12 [AZD-8186]
12 | > 30 µM (inactive) | > 30 µM (inactive) | > 30 µM (inactive) | > 30 µM (inactive) | > 30 µM (inactive) | > 30 µM (inactive) | > 30 µM (inactive) | > 30 µM (inactive) | > 30 µM (inactive) | Cc1cc([C@@H](C)Nc2ccccc2C(=O)O)c2nc(N3CCOCC3)cc(=O)n2c1 [AZD-6482]
13 | > 30 µM (inactive) |  | 0.476 µM (active) |  |  | 3.42 µM (active) | > 30 µM (inactive) | 0.755 µM (active) | > 30 µM (inactive) | Cc1cc(Nc2cc(N3CCN(C)CC3)nc(/C=C/c3ccccc3)n2)n[nH]1 [ENMD-2076]
14 | 5.39 µM (active) |  | 0.801 µM (active) | 0.396 µM (active) | 2.55 µM (active) | > 30 µM (inactive) | 0.007 µM (active) | > 30 µM (inactive) | > 30 µM (inactive) | Cc1nc(N)sc1-c1ccnc(Nc2ccc(N3CCOCC3)cc2)n1 [CYC-116]
15 | > 30 µM (inactive) | > 30 µM (inactive) | > 30 µM (inactive) |  | > 30 µM (inactive) | > 30 µM (inactive) | > 30 µM (inactive) | > 30 µM (inactive) | > 30 µM (inactive) | OCCn1cc(-c2cnc3nnn(Cc4ccc5ncccc5c4)c3n2)cn1 [PF-04217903]
16 | > 30 µM (inactive) | > 30 µM (inactive) | > 30 µM (inactive) | > 30 µM (inactive) | > 30 µM (inactive) | 12.9 µM (active) | > 30 µM (inactive) |  | > 30 µM (inactive) | COc1cc(CCc2cc(NC(=O)c3ccc(N4C[C@@H](C)N[C@@H](C)C4)cc3)n[nH]2)cc(OC)c1 [AZD-4547]
